Measurements published in ChEMBL document CHEMBL1201862, “PubChem BioAssay data set” (2004).
The source made the active and inactive calls.

Legend:
[1] = target: Protein disulfide-isomerase (Homo sapiens, UniProt P07237); assay: inhibition of PDI-driven insulin aggregation – biochemical, turbidity, absorbance, cherry-picked samples, dose response (AID 602350); assay type: functional
CHO = CHO cell viability loss, potency – luminescence, cytotoxicity control for TLR9-MyD88 binding inhibitor project, dose response (AID 588339); assay type: functional, cell-based, hamster; conditions: Cricetulus griseus;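 further: CHO cells stably coexpressing TLR9 and MyD88 fusions from primary screen; compound exposure lasted 48 hours before viability readout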
[2] = Counterscreen for AddAB inhibitors: absorbance-based bacterial cell-based high throughput dose response assay for inhibitors of bacterial viability. [Related pubchem assays (depositor defined):AID435030, AID449728, AID449731, AID488942, AID488955, AID488956]; assay type: functional
[3] = Luminescence Cell-Based Dose Retest to Confirm Inhibitors of Cancer Stem Cells. [Related pubchem assays (depositor defined):AID2717, AID2721]; assay type: functional; conditions: Homo sapiens
[4] = Fluorescence-based cell-based high throughput dose response assay for inhibitors of the interaction of nucleotide-binding oligomerization domain containing 2 (NOD2) and the receptor-interacting serine-threonine kinase 2 (RIPK2).; assay type: functional; conditions: Homo sapiens
[5] = blockers of HIV-1 ZM109 envelope-driven cell-cell fusion – HeLa effector, CEM target cells, luciferase, cherry-pick, dose response (AID 652058); assay type: functional, cell-based;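 further: luciferase signal from HIV-1 Env mediated cell-cell fusion of effector and target cells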
[6] = HIV-1 AD8 envelope cell-cell fusion blockers – cherry-pick, dose response (AID 652062); assay type: functional, cell-based;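 further: luciferase signal from cell-cell fusion driven by HIV-1 clade B AD8 Env; potency is for inhibitors of fusion seen as a drop in luminescence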
HEK293 [7] = assay: cells; conditions: Homo sapiens
[8] = NIH3T3 cell viability loss – ATP luminescence, mouse fibroblasts, counter-screen, dose response (AID 2010); assay type: functional, cell-based;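 further: cells exposed to compound for about 90 hours before reading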
[9] = viability loss in CEM21 cells – cell-based, CellTiter-Glo luminescence, cherry-picked, cytotoxicity control for viral fusion inhibitor project, dose response (AID 652042); assay type: functional;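 further: potency for signal decrease meaning cytotoxicity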
[10] = Trypanosoma cruzi growth suppression in host cells – NIH3T3 host cells, beta-gal luminescence, confirmation (AID 2044); assay type: functional, cell-based;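 further: intracellular parasites grown in NIH/3T3 mouse fibroblasts as host cells; luminescent beta-galactosidase reporter signal from transgenic T. cruzi replicating inside host cells; inhibitors lower the luminescence signal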
[11] = off-target signal loss in HeLa-CEM21 co-culture – HeLa F-luc CTL cells, cherry-picked, counter-screen for HIV-1 Env fusion inhibitor project, dose response (AID 652040); assay type: functional, cell-based;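 further: potency for signal decrease marking cytotoxic or nonspecific inhibition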
HEK293 [12] = assay: cells; conditions: Homo sapiens; remark: listed apart in the source
[13] = blockers of HIV-1 envelope-mediated cell-cell fusion – cherry-pick, dose response (AID 652057); assay type: functional, cell-based
HEK293 [14] = assay: cells; assay type: functional, cell-based; conditions: Homo sapiens
[15] = target: Nuclear receptor subfamily 0 group B member 1 (Homo sapiens, UniProt P51843); assay: Luminescence-based cell-based high throughput dose response assay for inhibitors of the orphan nuclear receptor subfamily 0, group B, member 1 (DAX1; NR0B1). [Related pubchem assays (depositor defined):AID504766, AID504790]; assay type: functional
H4 = assay: Luminescence Cell-Based Dose Response HTS to Identify Activators of 5'UTR Stem-Loop Driven Prion Protein mRNA Translation in H4 Neuroglioblastoma Cells. [Related pubchem assays: 1829 (Project Summary), 1814 (Primary HTS)]; assay type: functional; conditions: Homo sapiens
[16] = Luminescence Cell-Based Dose Confirmation HTS to Identify Activators of 5'UTR Stem-Loop Driven Alpha-Synuclein mRNA Translation in H4 Neuroglioblastoma Cells. [Related pubchem assays: 1829 (Project Summary), 1814 (Primary HTS)]; assay type: functional
[17] = Luminescence Cell-Based Dose Response HTS to Identify Activators of Luciferase Translation or Activity in H4 […] Cells. [Related pubchem assays: 1829 (Project Summary), 1814 (Primary HTS)]; assay type: functional

Chain of Nuclear receptor subfamily 0 group B member 1 (P51843 whole entry): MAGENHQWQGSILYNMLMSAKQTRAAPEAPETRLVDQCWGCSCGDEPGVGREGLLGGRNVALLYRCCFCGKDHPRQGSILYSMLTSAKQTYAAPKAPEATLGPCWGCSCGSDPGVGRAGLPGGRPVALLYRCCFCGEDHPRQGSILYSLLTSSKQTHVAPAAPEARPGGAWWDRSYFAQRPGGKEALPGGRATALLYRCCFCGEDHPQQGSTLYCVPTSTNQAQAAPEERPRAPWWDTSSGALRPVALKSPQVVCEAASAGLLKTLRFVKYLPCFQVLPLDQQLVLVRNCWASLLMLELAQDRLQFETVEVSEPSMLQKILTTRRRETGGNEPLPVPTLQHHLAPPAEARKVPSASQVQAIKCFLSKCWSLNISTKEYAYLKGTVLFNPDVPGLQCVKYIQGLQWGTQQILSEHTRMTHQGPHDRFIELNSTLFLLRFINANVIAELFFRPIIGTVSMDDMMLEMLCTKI
Chain of Protein disulfide-isomerase (P07237 whole entry, the tested form may be a part): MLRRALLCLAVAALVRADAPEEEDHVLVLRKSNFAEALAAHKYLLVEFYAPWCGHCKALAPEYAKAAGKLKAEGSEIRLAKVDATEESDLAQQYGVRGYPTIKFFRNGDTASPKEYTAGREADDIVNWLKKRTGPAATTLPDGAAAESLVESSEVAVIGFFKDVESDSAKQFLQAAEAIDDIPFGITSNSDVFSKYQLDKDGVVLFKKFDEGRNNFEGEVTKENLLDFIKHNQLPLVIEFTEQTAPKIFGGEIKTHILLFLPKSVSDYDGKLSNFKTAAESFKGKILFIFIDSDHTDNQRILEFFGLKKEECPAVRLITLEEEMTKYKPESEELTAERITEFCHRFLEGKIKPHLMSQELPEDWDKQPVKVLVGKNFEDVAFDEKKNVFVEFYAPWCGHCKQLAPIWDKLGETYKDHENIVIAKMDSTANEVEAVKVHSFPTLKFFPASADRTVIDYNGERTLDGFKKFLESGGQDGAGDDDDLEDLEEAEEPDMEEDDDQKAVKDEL

CCSc1nnc([C@H](Cc2c[nH]c3ccccc23)NC(=O)OC(C)(C)C)o1
AC50 [1]: 19.5 µM (active)

C=CCn1c(O)nnc1Sc1ncc([N+](=O)[O-])s1
IC50 (CHO): 1.99 µM (active) | IC50 [2]: 21.7 µM (inactive) | AC50 [3]: 1.85 µM (active) | IC50 [4]: 1.32 µM (active)

CCN(CC(O)CON=C1c2ccccc2-c2ccccc21)S(=O)(=O)c1ccc(C)cc1 (stereo unspecified)
AC50 [5]: 2.97 µM (active) | AC50 [6]: 2.44 µM (active) | EC50 (HEK293 [7]): > 59.6 µM (inactive) | EC50 [8]: > 60 µM (not active) | AC50 [9]: 41.7 µM (active) | EC50 [10]: 1.68 µM (active) | AC50 [11]: 4.5 µM (active) | EC50 (HEK293 [12]): > 59.6 µM (inactive) | AC50 [13]: 2.96 µM (active)

O=C(NCCN1CCCCC1)Nc1ccc([N+](=O)[O-])cc1
IC50 (HEK293 [14]): > 67.5 µM (inactive) | IC50 [15]: > 67.5 µM (inactive)

Cc1ccccc1OCC(=O)Nc1ccc2c(c1)OCCO2
IC50 (HEK293 [14]): > 67.5 µM (inactive) | EC50 (H4): 75.2 µM (active) | EC50 [16]: 51.8 µM (active) | IC50 [15]: > 67.5 µM (inactive) | EC50 [17]: 4.75 µM (active)
